Non-standard residues stand in square brackets, D forms with d. Residues, ends and D or L forms follow the SMILES beside them. dLac(3-vinyl) = C=CC[C@@H](O)C(=O)O; NMeV = CN[C@H](C(=O)O)C(C)C; NMeA = CN[C@@H](C)C(=O)O; βAla = NCCC(=O)O
Experiments:
BmTudor-sn [1] = assay: Transcriptional level of BmTudor-sn; assay type: cell-based, Bombyx mori; conditions: by DA; method not described
BmTudor-sn [2] = assay: Cellular thermal shift assay (CETSA), BmTudor-sn; assay type: cell-based, Bombyx mori; conditions: Bm12 cells
Method: (§1) The Bm12 cell line was used to conduct the CETSA and immunoblot experiments. Cells were treated with DA. For immunoblotting, cell extracts from different DA treatments, collected after incubation with RIPA lysis buffer, were digested with proteinase K and then heated in water at 90 °C for 5 min. Samples were analyzed using SDS-PAGE and transferred to PVDF membranes. The membranes were then incubated in skim milk powder, followed by incubation with primary and HRP antibodies. ECL was added to the chemiluminescence reaction. For CETSA, Bm12 cells, treated with 200 µg/mL DA, were divided into 8 aliquots, heated at 37–58 °C, and lysed by a freeze-thaw cycle. The supernatants of the lysed cells were used for the western blot analysis as described above.

BmAGO2 [3] = assay: Bio-Layer Interferometry (BLI), BmAGO2; assay type: binding, Bombyx mori; conditions: recombinant protein from Sf9 cells, DA 7.813-500 μM
Method: (§2) All proteins were prepared by eukaryotic expression in the Sf9 cell line. These were tagged with His-tag and purified by nickel affinity chromatography. BLI analysis was performed on a ForteBio OctetQK System (K2, Pall Fortebio Corp, Menlo Park, CA, USA). Generally, the protein samples were coupled with a biosensor for immobilization. Serial not gradient dilutions of DA (500, 250, 125, 62.5, 31.25, 15.63, and 7.813 μM) were used for treatment. PBST buffer (0.05% Tween20, 5% DMSO) was used for the reference and dilution buffers. The working procedure was baseline for 60 s, association for 60 s, and dissociation for 60 s. Finally, the raw data were processed with Data Analysis Software (9.0, Pall Fortebio Corp, Menlo Park, CA, USA).

Bm12 cells = assay: RNAi and viability assessment under DA treatment; assay type: cell-based, silkworm (Bombyx mori)
Method: SiRNAs were prepared by synthesis in vitro. The sequence of BmTudor-sn siRNA is 5ʹ-[…]-3ʹ and 5ʹ-[…]-3ʹ. SiRNA and FuGENE transfection reagent were each diluted in serum-free medium and then mixed. The mixture was added to Bm12 cells after the DA treatment. Viability and toxicity assessment were performed following the manufacturer’s instructions.

BmAGO2 [4] = assay: Cellular thermal shift assay (CETSA), BmAGO2; assay type: cell-based, Bombyx mori; conditions: Bm12 cells, DA 200 µg/mL, 37–58 °C, freeze-thaw lysis, western blot of supernatant
Method: as §1

BmPiwi [5] = assay: Bio-Layer Interferometry (BLI), BmPiwi; assay type: binding, Bombyx mori; conditions: recombinant protein from Sf9 cells, DA 7.813-500 μM
Method: as §2

HSP = conditions: in vitro molecular interaction validation; cited from earlier work
Description: (§3) Destruxins are cyclodepsipeptidic mycotoxins, and there are 39 analogues. […] Because of the immunosuppression activity of DA in insects, the majority of studies have focused on the mechanism of action of the effect of DA on the immune-related pathway or st ...

[6] = test system: heat shock proteins (HSPs); conditions: cultured cells (Bm12), DARTS; cited from earlier work
Description: as §3

insects = conditions: cited from earlier work
Description: as §3

BmTudor-sn [7] = assay: Bio-Layer Interferometry (BLI), BmTudor-sn; assay type: binding, Bombyx mori; conditions: PBST (0.05% Tween20, 5% DMSO)
Method: as §2

BmAGO2 [8] = assay: Transcriptional level of BmAGO2; assay type: cell-based, Bombyx mori; conditions: by DA; method not described
BmTudor-sn [9] = conditions: Bm12 cells; specific proteinase; earlier DARTS analysis of the authors; reference not given; cited from earlier work
Description: Molecular docking is a reasonable, efficient, and convenient strategy to narrow down candidates among all proteins compared to other methods such as heterologous expression and kinetic analysis, which require verification one by one. However, it seems paradoxical in this study that proteins with the top docking scores were not the binding protein [24]. Actually, docking is a completely theoretical speculation, and other experiments are required to draw a conclusion. H ...

BmPiwi [10] = assay: Transcriptional level of BmPiwi; assay type: cell-based, Bombyx mori; conditions: by DA; method not described
BmTudor-sn [11] = assay: Immunoblot after proteolysis, BmTudor-sn; assay type: cell-based, Bombyx mori; conditions: Bm12 cell extracts from different DA treatments, proteinase K, western blot
Method: as §1

BmTudor-sn with BmAGO1 = assay: Insect two-hybrid (I2H), interaction of BmTudor-sn and mutants with BmAGO1; assay type: cell-based, Bombyx mori; conditions: Sf9 cells, luciferase; for mutants with signal different from wild type: p < 0.05, DMRT
Method: BmTudor-sn and mutants were cloned into the I2H vector pIE-AD, and BmAGO1 was cloned into the I2H vector pIE-DBD using the Gateway system. These vectors and the luciferase vector were co-transfected into the Sf9 cell line and treated with DA at 0.02 and 0.2 µg/mL. The luciferase activities in the cell extracts were determined using a Luciferase Reporter Assay System (Promega, Beijing, China) and Synergy™ H1 (BioTek, Winooski, VT, USA).

BmPiwi [12] = assay: Cellular thermal shift assay (CETSA), BmPiwi; assay type: cell-based, Bombyx mori; conditions: Bm12 cells, DA 200 µg/mL, 37–58 °C, freeze-thaw lysis, western blot of supernatant
Method: as §1

BmTudor-sn [13] = target: T1, BmTudor-sn (Bombyx mori, UniProt D9N4J4); assay: cellular thermal shift assay (CETSA), western blot, endogenous protein in Bm12 cells; assay type: cell-based; conditions: 200 µg/mL DA; intact Bm12 cells heated at 37–58 °C
T1 construct: gene Tudor-SN; endogenous protein in Bm12 cells (CETSA); four staphylococcal nuclease domains and a Tudor domain
T1 sequence (D9N4J4 1-888): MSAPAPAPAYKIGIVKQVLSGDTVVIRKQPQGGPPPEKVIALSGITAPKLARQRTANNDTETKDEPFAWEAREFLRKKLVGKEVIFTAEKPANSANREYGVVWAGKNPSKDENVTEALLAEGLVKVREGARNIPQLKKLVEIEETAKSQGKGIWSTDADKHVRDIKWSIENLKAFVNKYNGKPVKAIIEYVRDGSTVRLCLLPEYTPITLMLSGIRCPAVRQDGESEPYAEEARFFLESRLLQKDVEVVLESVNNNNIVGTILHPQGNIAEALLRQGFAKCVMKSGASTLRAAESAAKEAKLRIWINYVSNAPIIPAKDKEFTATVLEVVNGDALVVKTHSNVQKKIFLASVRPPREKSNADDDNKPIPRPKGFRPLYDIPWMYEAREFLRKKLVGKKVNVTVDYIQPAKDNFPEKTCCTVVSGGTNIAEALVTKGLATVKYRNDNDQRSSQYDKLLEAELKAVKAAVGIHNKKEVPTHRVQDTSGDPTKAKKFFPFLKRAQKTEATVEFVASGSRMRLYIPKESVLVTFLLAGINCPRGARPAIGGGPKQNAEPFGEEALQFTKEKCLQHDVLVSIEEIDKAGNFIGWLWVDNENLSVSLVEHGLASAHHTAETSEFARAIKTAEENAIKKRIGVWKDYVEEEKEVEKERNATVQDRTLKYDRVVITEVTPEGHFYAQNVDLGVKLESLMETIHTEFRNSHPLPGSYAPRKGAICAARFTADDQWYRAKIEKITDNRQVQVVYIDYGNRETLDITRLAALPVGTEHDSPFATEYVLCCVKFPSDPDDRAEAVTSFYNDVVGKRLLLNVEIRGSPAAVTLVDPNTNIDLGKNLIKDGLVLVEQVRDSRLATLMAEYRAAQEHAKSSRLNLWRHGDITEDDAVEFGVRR

BmTudor-sn [14] = target: T1, BmTudor-sn; assay: bio-layer interferometry (ForteBio OctetQK), protein immobilised on biosensor; assay type: binding
V-ATPase = conditions: silkworm hemocytes; earlier work of the authors, no reference given; cited from earlier work
Description: (§4) DA has been previously reported to play a role in immune related pathways and in inducing the immunosuppression phenotype in insects. The majority of studies have focused on these roles, while few have addressed the mechanism of action in cells. […] Tudor-sn, a multifunctional protein, was reported to regulate do ...

[15] = cited from earlier work
Description: as §4

[16] = DA 0.02 or 0.2 µg/mL, by mutant site

Compound: C=CC[C@H]1OC(=O)CCNC(=O)[C@H](C)N(C)C(=O)[C@H](C(C)C)N(C)C(=O)[C@H]([C@@H](C)CC)NC(=O)[C@@H]2CCCN2C1=O [DA, Destruxin A] (cyclo([dLac(3-vinyl)]PI[NMeV][NMeA][βAla])) [listing 1 of 2 here]
- upregulation at the transcriptional level (BmTudor-sn [1]): 2-3 fold
- thermal stability (CETSA), dose dependence (BmTudor-sn [2]; 200 µg/mL versus lower dose): BmTudor-sn showed thermal stability with the 200 µg/mL treatment and not at the lower dose
- thermal stability (CETSA) (BmTudor-sn [2]; DA 200 µg/mL, 37–58 °C, freeze-thaw lysis, western blot of supernatant): thermal stability of BmTudor-sn increased following DA binding modification
- interaction with DA (BmAGO2 [3]): not BmPiwi or BmAGO2
- viability of BmTudor-sn knock down cells (Bm12 cells; Bm12 cells under DA treatment, * p < 0.05, t test): higher viability under DA treatment
- increase in viability with BmTudor-sn knockdown (Bm12 cells; Bm12 cells, BmTudor-sn siRNA, DA treatment): approximately 20%
- thermal stability shift (CETSA) (BmAGO2 [4]): no thermal stability shift in BmPiwi and BmAGO2
- interaction with DA (BmPiwi [5]): not BmPiwi or BmAGO2
- binding to an HSP (HSP): binds to an HSP in vitro
- induction of heat shock proteins [6]: greatly induced heat shock proteins (HSPs) in cultured cells
- insecticidal effect and anti-immunity activity (insects): strong insecticidal effect and anti-immunity activity
- Kd (BmTudor-sn [7]; BLI, ForteBio OctetQK, His-tagged recombinant protein from Sf9 cells immobilized, association 60 s, dissociation 60 s, DA 7.813-500 μM, read-out: affinity constant KD): 587 µM
- interaction with DA (BmTudor-sn [7]; BLI, DA 125, 250 and 500 µM): interacts with BmTudor-sn at concentrations of 125 µm, 250 µm, and 500 µm
- BLI Response (BmTudor-sn [7]; DA 7.81 uM): -0.0024
- BLI Response (BmTudor-sn [7]; DA 15.6 uM): -0.0035
- BLI Response (BmTudor-sn [7]; DA 31.3 uM): -0.0012
- BLI Response (BmTudor-sn [7]; DA 62.5 uM): 0.0001
- BLI Response (BmTudor-sn [7]; DA 125 uM): 0.0032
- BLI Response (BmTudor-sn [7]; DA 250 uM): 0.0086
- BLI Response (BmTudor-sn [7]; DA 500 uM): 0.0071
- upregulation at the transcriptional level (BmAGO2 [8]): 2-3 fold
- appearance of BmTudor-sn in DARTS (BmTudor-sn [9]): only appeared in the 200 µg/mL treatment with a specific proteinase and not at the lower dosage and with other proteinases
- upregulation at the transcriptional level (BmPiwi [10]): 2-3 fold
- protein stability under proteolysis (immunoblot) (BmTudor-sn [11]): stable with DA treatment in a dosage-dependent manner under proteolysis
- mutants with signal different from wild type (BmTudor-sn with BmAGO1; DA 0.02 µg/mL): 2 mutants, Ser707Ala and leu704Ala
- mutants with signal different from wild type (BmTudor-sn with BmAGO1; DA 0.2 µg/mL): 3 mutants, Ser701Ala, Leu704Ala, and Tyr708Ala
- domain of differing mutants (BmTudor-sn with BmAGO1; DA 0.02 and 0.2 µg/mL): in the Tudor domain (Ser707, Leu704, Ser701, Tyr708) rather than the SN3 (Lys492) and SN4 (Lys582) domains
- interaction site at both concentrations (BmTudor-sn with BmAGO1; DA 0.02 and 0.2 µg/mL): interacts with BmTudor-sn at both concentrations at Leu704
- effect on BmTudor-sn/BmAGO1 pair interaction, impeded (BmTudor-sn with BmAGO1; [16]): impeded the protein pair interaction at Ser707 and Tyr708
- effect on BmTudor-sn/BmAGO1 pair interaction, promoted (BmTudor-sn with BmAGO1; [16]): promoted it at Leu704 and Ser701
- thermal stability shift (CETSA) (BmPiwi [12]): no thermal stability shift in BmPiwi and BmAGO2

Compound: C=CC[C@H]1OC(=O)CCNC(=O)[C@H](C)N(C)C(=O)[C@H](C(C)C)N(C)C(=O)[C@H]([C@@H](C)CC)NC(=O)[C@@H]2CCCN2C1=O [DA, Destruxin A] (cyclo([dLac(3-vinyl)]PI[NMeV][NMeA][βAla])) [listing 2 of 2 here]
- thermal stability shift (BmTudor-sn [13]): the thermal stability of BmTudor-sn increased following DA binding modification
- Kd (BmTudor-sn [14]): 587 µM

Compound: Destruxin B [DB]
- sensitivity to V-ATPase compared with DA (V-ATPase): more sensitive to V-ATPase than DA in silkworm hemocytes
- anti-cancer activity [15]: clear anti-cancer activity
